Source: patent US9926369B2, “Methods for treating hepatocellular cancer by administering an anti-Ang-2 antibody” (Regeneron Pharmaceuticals, Inc., priority 2009, dated 2018)

Key:
[1] = system: COLO 205 (Human Colorectal Adenocarcinoma Cell Line) tumors; assay: COLO 205 mouse tumor model; assay type: in vivo, mice
Description: Briefly, 2×10^6COLO 205 cells in 100 μl of serum-free medium were injected subcutaneously into the flank of 6-8 week old male NCr nude mice (Taconic, Hudson, N.Y.). After tumor volumes reached an average of about 150 mm^3, mice were randomized into groups for treatment with antibody or Fc protein. Mice in each treatment group were administered an anti-Ang-2 antibody or Fc protein at a concentration of 4 mg/kg via intraperitoneal injection twice per week for approximately two weeks. Tumor volumes were measured twice per week over the course of the experiment and tumor weights were measured upon excision of tumors at the conclusion of the experiment. Averages (mean+/−standard deviation) of tumor weight and growth were calculated for each treatment group. “Avg. Tumor Growth” represents the average growth from the time of treatment initiation (when tumors were approximately 150 mm^3). Percent decrease of tumor weight and growth are calculated from comparison to Fc protein measurements.
A similar experiment was carried out to assess the effect of H1H685P, in particular, on COLO 205 tumor growth. Briefly, 2×10^6 COLO 205 cells in 100 μl of serum-free medium were implanted subcutaneously into the right hind flank of 9-11 week-old male SCID CB17 mice. When the tumors reached ˜125 mm^3, mice were randomized into 5 groups (n=7-8 mice/group) and treated twice per week with Fc protein (15 mg/kg), H1H685P (5 or 25 mg/kg) or Control II (5 or 25 mg/kg) for a period of 19 days. Tumor volumes were measured twice per week over the course of the experiment and tumor weights were measured upon excision of tumors at the end of the experiment. Averages of tumor weight and growth from the beginning of treatment were calculated for each group. Percent decrease of tumor weight and growth are calculated from comparison to the Fc control group.
To determine the effect of combining an anti-Ang-2 antibody with a VEGF inhibitor on the growth of COLO 205 xenografts, 2×10^6 cells were implanted subcutaneously into the right hind flank of 6-8 week-old female SCID mice. When the tumors reached an average volume of ˜350 mm^3, mice were randomized into 4 groups (n=6 mice/group) and treated with: human Fc protein (7.5 mg/kg), H1H685P (5 mg/kg), VEGF Trap (see U.S. Pat. No. 7,087,411) (2.5 mg/kg) or the combination of H1H685P+VEGF Trap. Mice were given a total of 3 doses over 10 days of treatment. Tumor volumes were measured twice per week over the course of the experiment. Averages of tumor growth from the start of treatment (mean+/−standard deviation) were calculated for each treatment group. Percent decrease of tumor growth was calculated from comparison to the Fc control group.
To test the effect of H1H685P in combination with a chemotherapeutic agent on tumor growth, 2.5×10^6 COLO 205 tumor cells were implanted subcutaneously into the right hind flank of 8-9 week-old male SCID mice. When the tumors reached an average volume of ˜150 mm^3 (day 17 after implantation), mice were randomized into 4 groups (n=5 mice/group) and treated as follows: the first group was treated sc with 15 mg/kg hFc and intraperitoneally (ip) with 5-FU vehicle; the second group was treated sc with 15 mg/kg of H1H685P; the third group was treated ip with 75 mg/kg of 5-FU; the fourth group was treated with the combination of 15 mg/kg H1H685P sc plus 75 mg/kg 5-FU ip. Mice received a total of three treatments, administered every 3-4 days. Tumor volumes were measured twice per week over the course of the experiment. Average (mean+/−standard deviation) tumor growth from the beginning of treatment until day 38 was calculated for each group. Percent decrease of tumor growth was calculated from comparison to the control group.

[2] = system: MMT tumors; assay: MMT tumor growth in SCID mice; assay type: in vivo; settings: H1H685P 12.5 mg/kg, VEGF Trap 5 mg/kg
Description: To provide additional evidence of combination efficacy, the effect of the H1H685P+VEGF Trap combination on the growth of MMT tumors was assessed. 0.5×10^6 MMT cells were implanted subcutaneously into the right hind flank of 6-8 week-old female SCID mice. […] The Fc and H1H685P groups were given 3 doses over 9 days. The VEGF Trap and combination groups were given 4 doses over 12 days. Tumor volumes were measured twice per week over the course of the experiment and tumor weights were measured upon excision of tumors at the end of the experiment (due to their large size, tumors from the Fc and H1H685P groups were collected 3 days before tumors from the VEGF Trap and combination groups). Averages (mean+/−standard deviation) of tumor growth from the beginning of treatment and of tumor weight were calculated for each group. Percent decrease of tumor weight and growth are calculated from comparison to the Fc control group.

[3] = system: COLO 205 tumor vessel perfusion; assay: Tumor perfusion by contrast-enhanced micro-ultrasound, COLO 205 tumors; assay type: in vivo, mice; settings: treated for 24 hrs
Description: To determine whether the combination of H1H685P+VEGF Trap has a greater effect on tumor vessel function than the single agents, a micro-ultrasound (VisualSonics' Vevo 770 imaging system) was used to assess changes in tumor perfusion. COLO 205 tumors were grown to ˜125 mm^3 and mice were then treated for 24 hrs with H1H685P, VEGF Trap or the combination of both agents. Following treatment, tumor vessel perfusion was determined based on contrast-enhanced micro-ultrasound 2D image acquisition and analysis of a “wash-in” curve, which represents the amount of contrast agent entering the tumor. Average (mean+/−standard deviation) tumor perfusion was calculated for each group. Percent decrease was calculated from comparison to the Fc control group.

[4] = COLO 205, male SCID mice, H1H685P 15 mg/kg sc, 5-FU 75 mg/kg ip, three treatments, until day 38
[5] = COLO 205, female SCID mice, H1H685P 5 mg/kg, VEGF Trap 2.5 mg/kg, 3 doses over 10 days

O=c1[nH]cc(F)c(=O)[nH]1 [Antibody 5-FU, 5-FU, reference compound]
% Decrease in Tumor Growth [1, 4]: 45%
Avg Tumor Growth [1, 4]: 313 ± 60 mm^3

VEGF Trap: VEGF-inhibiting fusion protein: VEGF receptor extracellular domains fused to the Fc portion of human IgG1 [reference compound]
% Decrease in Tumor Growth [2]: 60%
% Decrease in Tumor Weight [2]: 44%
Avg Tumor Growth [2]: 536 ± 179 mm^3
Avg Tumor Weight [2]: 0.889 ± 0.141 g
Relative Tumor Perfusion ([3]; mean ± SD): 6.99 ± 1.36
% Decrease in Tumor Perfusion ([3]; vs Fc control): 14%
% Decrease in Tumor Growth [1, 5]: 117%
Avg Tumor Growth [1, 5]: −62 ± 44 mm^3
Tumor regression (in words) ([1]; COLO 205, female SCID mice, end vs beginning of treatment): tumor regression was observed
